These results are taken from US8877928B2 (Shandong University, priority 2010, dated 2014).

One data set concerns A549. As to the kind of experiment: cells. Conditions: Homo sapiens, A549, read-out: IC50 A549. On the procedure:
(§1) All cell lines were obtained from the American Type Culture Collection, and grown in the following media: COLO 205 and OVCAR-3 (RPMI 1640, containing 4.5 g/L glucose, 10 mM HEPES, 1 mM sodium pyruvate, 10% FBS); HT-29 (McCoy's 5a, containing 1.5 mM L-glutamine, 10% FBS); A549 (Ham's F12K, containing 10% FBS). All cell lines were maintained in an incubator at 37° C. containing 5% CO2. […] Briefly, the day before the start of the experiment the cells were incubated in a 96-well plate in a quantity of 10,000-20,000/well. […] At the end of the incubation period, an MTS dye was added, and then the colored product formazane as formed was measured by a Spectramax 340PC reader (Molecular Devices, CA) at 490 nm.
(§2) A interval was less than 0.100 μM; B interval was greater than 0.100 μM but less than 0.500 μM; C interval was greater than 0.500 μM but less than 2.000 μM; D interval was greater than 2.000 μM.

The test system of the next data set is OVCAR-3. Kind of data set: cells. As to conditions: Homo sapiens, OVCAR-3, read-out: IC50 OVCAR3. The procedure:
as §1, §2

For the next data set, the system named is COLO 205. As to the kind of experiment: cells. Conditions: Homo sapiens, COLO 205, read-out: IC50 COLO205. The procedure:
as §1, §2

For the next data set, the system named is HT-29. As to the kind of experiment: cells. Conditions: Homo sapiens, HT-29, read-out: IC50 HT 29. On the procedure:
as §1, §2

The conditions of data set [1]: cited from earlier work.
Data set [2] can be described thus: Study of stability in plasma (disappearance of the conjugate by HPLC). As to conditions: 37° C. The procedure:
The mixture was quenched with a CH3CN/MeOH mixture (800 μL) in a ratio of 1:1, swirled for 1 minute, and then filtered through a 0.2 μm filter membrane. 30 μl of the resulting filtrate was analyzed by HPLC, to measure the disappearance of the conjugate.

The conditions of data set [3]: loss of midline facial features, uniocular, lack of anatomical features from forebrain; cited from earlier work.

As for `CC1=C2C[C@H]3[C@@H](CC=C4C[C@@H](O)CC[C@@]43C)[C@@H]2CC[C@]12O[C@@H]1C[C@H](C)CN[C@H]1[C@H]2C` [cyclopamine], the concentration for half-maximal inhibition (IC50) in the data set with A549 is more than 2000 nM; in the data set on OVCAR-3, 100 to 500 nM; in the data set on COLO 205, 100 to 500 nM; in the data set with HT-29, 100 to 500 nM. Also, the “chemical stability at low pH” value in data set [1] is recorded as “chemically instable”. Also, the “disappearance % 2 h” value in data set [2] (2 h) stood at 32%. For the same compound, in data set [2] (4 h), the “disappearance % 4 h” value came to 68%. For the same compound, in data set [2] (24 h), the “disappearance % 24 h” value was 83%. For the same compound, the teratogenicity result in data set [3] is listed as “teratogenic”.

By IC50 is commonly meant the concentration that gives 50% inhibition.
